Source: ChEMBL document CHEMBL3044921, “Synthesis, characterization, and SAR studies of new (1H-indol-3-yl)alkyl-3-(1H-indol-3-yl)propanamide derivatives as possible antimicrobial and antitubercular agents” (2013)
Converted amounts (≈) assume the structure as drawn.

Assays:
[1] = system: Talaromyces marneffei; experiment: Antifungal activity against Talaromyces marneffei assessed as growth inhibition at […] to […] ug/ml after 3 to 4 days by agar well diffusion method; format: functional
[2] = system: Aspergillus fumigatus; experiment: Antifungal activity against Aspergillus fumigatus NCIM 902 assessed as growth inhibition at […] to […] ug/ml after 3 to 4 days by agar well diffusion method; format: functional
[3] = system: Aspergillus flavus; experiment: Antifungal activity against Aspergillus flavus NCIM 524 assessed as growth inhibition at […] to […] ug/ml after 3 to 4 days by agar well diffusion method; format: functional
[4] = system: Candida albicans; experiment: Antifungal activity against Candida albicans assessed as growth inhibition after 3 to 4 days by serial plate dilution method; format: functional
[5] = system: Trichophyton mentagrophytes; experiment: Antifungal activity against Trichophyton mentagrophytes assessed as growth inhibition after 3 to 4 days by serial plate dilution method; format: functional
[6] = system: Talaromyces marneffei; experiment: Antifungal activity against Talaromyces marneffei assessed as growth inhibition after 3 to 4 days by serial plate dilution method; format: functional
[7] = system: Aspergillus fumigatus; experiment: Antifungal activity against Aspergillus fumigatus NCIM 902 assessed as growth inhibition after 3 to 4 days by serial plate dilution method; format: functional
[8] = system: Aspergillus flavus; experiment: Antifungal activity against Aspergillus flavus NCIM 524 assessed as growth inhibition after 3 to 4 days by serial plate dilution method; format: functional
[9] = system: Streptococcus pyogenes; format: functional
Description: Antibacterial activity against Streptococcus pyogenes assessed as growth inhibition at 1.56 to 25 ug/ml after 3 to 4 days by agar well diffusion method

[10] = system: Klebsiella pneumoniae; format: functional
Description: Antibacterial activity against Klebsiella pneumoniae assessed as growth inhibition at 1.56 to 25 ug/ml after 3 to 4 days by agar well diffusion method

[11] = system: Pseudomonas aeruginosa; format: functional, ATCC 27853
Description: Antibacterial activity against Pseudomonas aeruginosa ATCC 27853 assessed as growth inhibition at 1.56 to 25 ug/ml after 3 to 4 days by agar well diffusion method

[12] = system: Staphylococcus aureus; format: functional, ATCC 25923
Description: Antibacterial activity against Staphylococcus aureus ATCC 25923 assessed as growth inhibition at 1.56 to 25 ug/ml after 3 to 4 days by agar well diffusion method

[13] = system: Streptococcus pyogenes; experiment: Antibacterial activity against Streptococcus pyogenes assessed as growth inhibition after 16 to 18 hr by serial plate dilution method; format: functional
[14] = system: Mycolicibacterium fortuitum; experiment: Antitubercular activity against Mycobacterium fortuitum ATCC 19542 assessed as growth inhibition at 0.3125 to 5 ug/mL after 7 days by resazurin reduction test; format: functional; settings: ATCC 19542, 168 h
[15] = system: Mycolicibacterium smegmatis; experiment: Antitubercular activity against Mycobacterium smegmatis ATCC 19420 assessed as growth inhibition at 0.3125 to 5 ug/mL after 7 days by resazurin reduction test; format: functional; settings: ATCC 19420, 168 h
[16] = system: Mycobacterium tuberculosis; experiment: Antitubercular activity against Mycobacterium tuberculosis H37Rv ATCC 27294 assessed as growth inhibition at 0.3125 to 5 ug/mL after 7 days by resazurin reduction test; format: functional; settings: H37Rv ATCC 27294, 168 h
[17] = system: Mycolicibacterium smegmatis; experiment: Antitubercular activity against Mycobacterium smegmatis ATCC 19420 assessed as growth inhibition at 1 to 100 ug/mL after 7 days by resazurin reduction test; format: functional; settings: ATCC 19420, 168 h
[18] = system: Mycolicibacterium fortuitum; experiment: Antitubercular activity against Mycobacterium fortuitum ATCC 19542 assessed as growth inhibition at 1 to 100 ug/mL after 7 days by resazurin reduction test; format: functional; settings: ATCC 19542, 168 h
[19] = system: Mycobacterium tuberculosis; experiment: Antitubercular activity against Mycobacterium tuberculosis H37Rv ATCC 27294 assessed as growth inhibition at 1 to 100 ug/mL after 7 days by resazurin reduction test; format: functional; settings: for MIC: Mycobacterium tuberculosis, H37Rv ATCC 27294, 168 h
[20] = system: Candida albicans; experiment: Antifungal activity against Candida albicans assessed as growth inhibition at […] to […] ug/ml after 3 to 4 days by agar well diffusion method; format: functional
[21] = system: Trichophyton mentagrophytes; experiment: Antifungal activity against Trichophyton mentagrophytes assessed as growth inhibition at […] to […] ug/ml after 3 to 4 days by agar well diffusion method; format: functional
[22] = system: Klebsiella pneumoniae; experiment: Antibacterial activity against Klebsiella pneumoniae assessed as growth inhibition after 16 to 18 hr by serial plate dilution method; format: functional
[23] = system: Pseudomonas aeruginosa; experiment: Antibacterial activity against Pseudomonas aeruginosa ATCC 27853 assessed as growth inhibition after 16 to 18 hr by serial plate dilution method; format: functional
[24] = system: Escherichia coli; experiment: Antibacterial activity against Escherichia coli […] assessed as growth inhibition after 16 to 18 hr by serial plate dilution method; format: functional
[25] = system: Staphylococcus aureus; experiment: Antibacterial activity against Staphylococcus aureus ATCC 25923 assessed as growth inhibition after 16 to 18 hr by serial plate dilution method; format: functional
[26] = system: Escherichia coli; format: functional, ATCC 24922
Description: Antibacterial activity against Escherichia coli ATCC 24922 assessed as growth inhibition at 1.56 to 25 ug/ml after 3 to 4 days by agar well diffusion method

| SMILES | diameter of the inhibition zone (DIZ) [1] [mm] | diameter of the inhibition zone (DIZ) [2] [mm] | diameter of the inhibition zone (DIZ) [3] [mm] | MIC [4] [µg/mL] | MIC [5] [µg/mL] | MIC [6] [µg/mL] | MIC [7] [µg/mL] | MIC [8] [µg/mL] | diameter of the inhibition zone (DIZ) [9] [mm] | diameter of the inhibition zone (DIZ) [10] [mm] | diameter of the inhibition zone (DIZ) [11] [mm] | diameter of the inhibition zone (DIZ) [12] [mm] | MIC [13] [µg/mL] | MIC [14] [µg/mL] | MIC [15] [µg/mL] | MIC [16] [µg/mL] | MIC [17] [µg/mL] | MIC [18] [µg/mL] | growth inhibition (GI) [19] [%] | MIC [19] [µg/mL] | also measured |
| --- | --- | --- | --- | --- | --- | --- | --- | --- | --- | --- | --- | --- | --- | --- | --- | --- | --- | --- | --- | --- | --- |
| Cn1cc(CCC(=O)NCc2c[nH]c3ccc(Cl)cc23)c2cc(Cl)ccc21 | 16 | 16 | 16 | 6.25 (≈ 15.6 µM) | 6.25 (≈ 15.6 µM) | 6.25 (≈ 15.6 µM) | 6.25 (≈ 15.6 µM) | 6.25 (≈ 15.6 µM) | 16 | 16 | <10 | 16 | 6.25 (≈ 15.6 µM) | 10 (≈ 25 µM) | 10 (≈ 25 µM) | 0.625 (≈ 1.56 µM) | 10 (≈ 25 µM) | 10 (≈ 25 µM) | 95 | 1 (≈ 2.5 µM) | diameter of the inhibition zone (DIZ) [20]: 16 mm; diameter of the inhibition zone (DIZ) [21]: 16 mm; MIC [22]: 6.25 µg/mL (≈ 15.6 µM); MIC [23]: 25 µg/mL (≈ 62.5 µM); MIC [24]: 6.25 µg/mL (≈ 15.6 µM); MIC [25]: 6.25 µg/mL (≈ 15.6 µM); diameter of the inhibition zone (DIZ) [26]: 16 mm |
| Cn1cc(CCCNC(=O)CCc2cn(C)c3ccc(Cl)cc23)c2cc(Cl)ccc21 | <10 | 11 | 11 | 25 (≈ 56.5 µM) | 12.5 (≈ 28.3 µM) | 25 (≈ 56.5 µM) | 12.5 (≈ 28.3 µM) | 12.5 (≈ 28.3 µM) | <10 | <10 | <10 | 11 | 25 (≈ 56.5 µM) |  | 10 (≈ 22.6 µM) | 5 (≈ 11.3 µM) | 10 (≈ 22.6 µM) | > 100 | <90 | 10 (≈ 22.6 µM) | diameter of the inhibition zone (DIZ) [20]: <10 mm; diameter of the inhibition zone (DIZ) [21]: 11 mm; MIC [22]: 25 µg/mL (≈ 56.5 µM); MIC [23]: 25 µg/mL (≈ 56.5 µM); MIC [24]: 25 µg/mL (≈ 56.5 µM); MIC [25]: 12.5 µg/mL (≈ 28.3 µM); diameter of the inhibition zone (DIZ) [26]: <10 mm |
| Cc1[nH]c2ccc(OC(F)(F)F)cc2c1CCCNC(=O)CCc1c[nH]c2ccc(Cl)cc12 | 16 | 16 | 16 | 6.25 (≈ 13.1 µM) | 6.25 (≈ 13.1 µM) | 6.25 (≈ 13.1 µM) | 6.25 (≈ 13.1 µM) | 6.25 (≈ 13.1 µM) | 16 | 16 | 16 | 16 | 6.25 (≈ 13.1 µM) | 10 (≈ 20.9 µM) | 10 (≈ 20.9 µM) | 2.5 (≈ 5.23 µM) | 10 (≈ 20.9 µM) | 10 (≈ 20.9 µM) | <90 | 10 (≈ 20.9 µM) | diameter of the inhibition zone (DIZ) [20]: 16 mm; diameter of the inhibition zone (DIZ) [21]: 16 mm; MIC [22]: 6.25 µg/mL (≈ 13.1 µM); MIC [23]: 6.25 µg/mL (≈ 13.1 µM); MIC [24]: 6.25 µg/mL (≈ 13.1 µM); MIC [25]: 6.25 µg/mL (≈ 13.1 µM); diameter of the inhibition zone (DIZ) [26]: 16 mm |
| Cn1cc(CCC(=O)NCCCc2c[nH]c3ccc(OC(F)(F)F)cc23)c2cc(Cl)ccc21 | <10 | 11 | 11 | 6.25 (≈ 13.1 µM) | 25 (≈ 52.3 µM) | 25 (≈ 52.3 µM) | 12.5 (≈ 26.2 µM) | 12.5 (≈ 26.2 µM) | 16 | 11 | 11 | 16 | 6.25 (≈ 13.1 µM) | 10 (≈ 20.9 µM) | 10 (≈ 20.9 µM) | 0.625 (≈ 1.31 µM) | 10 (≈ 20.9 µM) | 10 (≈ 20.9 µM) | 95 | 1 (≈ 2.09 µM) | diameter of the inhibition zone (DIZ) [20]: 16 mm; diameter of the inhibition zone (DIZ) [21]: <10 mm; MIC [22]: 12.5 µg/mL (≈ 26.2 µM); MIC [23]: 12.5 µg/mL (≈ 26.2 µM); MIC [24]: 12.5 µg/mL (≈ 26.2 µM); MIC [25]: 6.25 µg/mL (≈ 13.1 µM); diameter of the inhibition zone (DIZ) [26]: 11 mm |
| Cn1cc(CCC(=O)NCCCc2c[nH]c3ccc(Cl)cc23)c2cc(Cl)ccc21 | <10 | <10 | <10 | 6.25 (≈ 14.6 µM) | 12.5 (≈ 29.2 µM) | 25 (≈ 58.4 µM) | 25 (≈ 58.4 µM) | 25 (≈ 58.4 µM) | 11 | 16 | 16 | 16 | 12.5 (≈ 29.2 µM) |  | 2.5 (≈ 5.84 µM) | 2.5 (≈ 5.84 µM) | 10 (≈ 23.3 µM) | > 100 | <90 | 10 (≈ 23.3 µM) | diameter of the inhibition zone (DIZ) [20]: 16 mm; diameter of the inhibition zone (DIZ) [21]: 11 mm; MIC [22]: 6.25 µg/mL (≈ 14.6 µM); MIC [23]: 6.25 µg/mL (≈ 14.6 µM); MIC [24]: 6.25 µg/mL (≈ 14.6 µM); MIC [25]: 6.25 µg/mL (≈ 14.6 µM); diameter of the inhibition zone (DIZ) [26]: 16 mm |
| Cn1cc(CCCNC(=O)CCc2c[nH]c3ccc(Cl)cc23)c2cc(OC(F)(F)F)ccc21 | 11 | <10 | <10 | 25 (≈ 52.3 µM) | 25 (≈ 52.3 µM) | 12.5 (≈ 26.2 µM) | 25 (≈ 52.3 µM) | 25 (≈ 52.3 µM) | 16 | 16 | 16 | 16 | 6.25 (≈ 13.1 µM) | 10 (≈ 20.9 µM) | 10 (≈ 20.9 µM) | 0.625 (≈ 1.31 µM) | 10 (≈ 20.9 µM) | 10 (≈ 20.9 µM) | 95 | 1 (≈ 2.09 µM) | diameter of the inhibition zone (DIZ) [20]: <10 mm; diameter of the inhibition zone (DIZ) [21]: <10 mm; MIC [22]: 6.25 µg/mL (≈ 13.1 µM); MIC [23]: 6.25 µg/mL (≈ 13.1 µM); MIC [24]: 6.25 µg/mL (≈ 13.1 µM); MIC [25]: 6.25 µg/mL (≈ 13.1 µM); diameter of the inhibition zone (DIZ) [26]: 16 mm |
| Cc1[nH]c2ccc(OC(F)(F)F)cc2c1CNC(=O)CCc1cn(C)c2ccc(Cl)cc12 | <10 | <10 | <10 | 12.5 (≈ 26.9 µM) | 25 (≈ 53.9 µM) | 25 (≈ 53.9 µM) | 25 (≈ 53.9 µM) | 25 (≈ 53.9 µM) | 11 | 16 | <10 | <10 | 12.5 (≈ 26.9 µM) | 1.25 (≈ 2.69 µM) | 1.25 (≈ 2.69 µM) | 1.25 (≈ 2.69 µM) | 1 (≈ 2.16 µM) | 10 (≈ 21.6 µM) | 90 | 1 (≈ 2.16 µM) | diameter of the inhibition zone (DIZ) [20]: 11 mm; diameter of the inhibition zone (DIZ) [21]: <10 mm; MIC [22]: 6.25 µg/mL (≈ 13.5 µM); MIC [23]: 25 µg/mL (≈ 53.9 µM); MIC [24]: 6.25 µg/mL (≈ 13.5 µM); MIC [25]: 25 µg/mL (≈ 53.9 µM); diameter of the inhibition zone (DIZ) [26]: 16 mm |
| NNC(=O)c1ccncc1 [ISONIAZID] |  |  |  |  |  |  |  |  |  |  |  |  |  | 12.5 (≈ 91.1 µM) | 50 (≈ 365 µM) | 0.7 (≈ 5.1 µM) | 50 (≈ 365 µM) | 12.5 (≈ 91.1 µM) | 95 | 0.7 (≈ 5.1 µM) |  |
| CO[C@H]1/C=C/O[C@@]2(C)Oc3c(C)c(O)c4c(O)c(c(/C=N/N5CCN(C)CC5)c(O)c4c3C2=O)NC(=O)/C(C)=C\C=C\[C@H](C)[C@H](O)[C@@H](C)[C@@H](O)[C@@H](C)[C@H](OC(C)=O)[C@@H]1C [RIFAMPIN] |  |  |  |  |  |  |  |  |  |  |  |  |  | 1.5 (≈ 1.82 µM) | 1.5 (≈ 1.82 µM) | 0.5 (≈ 0.608 µM) | 1.5 (≈ 1.82 µM) | 1.5 (≈ 1.82 µM) | 95 | 0.5 (≈ 0.608 µM) |  |
